From patent US8957074B2 (Novartis AG, priority 2010, dated 2015)
Read-outs that look alike come from different tables or passages of the source.

Experiments:
[1] = target: CDK4/cyclin D1 (Homo sapiens (Human), UniProt P11802); assay: CDK4/cyclin D1 enzymatic activity assay (TR-FRET, phosphorylation of pRb at Ser780); format: biochemical
In short: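 Phosphorylation at pRb Ser780, detected by TR-FRET, gave IC50s and kinetics. Enzyme: baculovirus/Sf21-expressed human CDK4/cyclin D1. ATP at 3 μM initiated the reaction; EDTA (pH 8.0) stopped it after 60 min at 22° C.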

[2] = tested on: phosphorylation of pRb at the Ser780 site in JeKo-1 mantle cell lymphoma cells; assay: CDK4 cellular assay: ELISA of pRb phosphorylation at Ser780 in JeKo-1 cells; format: cell-based
[3] = target: CDK1/cyclin B (Homo sapiens (Human), UniProt P06493); assay: CDK1/cyclin B enzymatic activity assay (IMAP-FP); format: biochemical
Sequence of CDK1/cyclin B (P06493 whole entry, species assumed): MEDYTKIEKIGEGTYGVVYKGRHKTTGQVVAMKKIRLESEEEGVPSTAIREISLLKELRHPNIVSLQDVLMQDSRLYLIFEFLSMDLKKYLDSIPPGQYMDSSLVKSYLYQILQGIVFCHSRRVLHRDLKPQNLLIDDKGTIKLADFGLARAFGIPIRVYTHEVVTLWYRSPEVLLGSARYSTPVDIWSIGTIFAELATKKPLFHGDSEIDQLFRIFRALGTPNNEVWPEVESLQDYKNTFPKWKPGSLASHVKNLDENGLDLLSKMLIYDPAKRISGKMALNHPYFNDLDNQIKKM
Sequence of CDK1/cyclin B (P14635 whole entry partner, species assumed): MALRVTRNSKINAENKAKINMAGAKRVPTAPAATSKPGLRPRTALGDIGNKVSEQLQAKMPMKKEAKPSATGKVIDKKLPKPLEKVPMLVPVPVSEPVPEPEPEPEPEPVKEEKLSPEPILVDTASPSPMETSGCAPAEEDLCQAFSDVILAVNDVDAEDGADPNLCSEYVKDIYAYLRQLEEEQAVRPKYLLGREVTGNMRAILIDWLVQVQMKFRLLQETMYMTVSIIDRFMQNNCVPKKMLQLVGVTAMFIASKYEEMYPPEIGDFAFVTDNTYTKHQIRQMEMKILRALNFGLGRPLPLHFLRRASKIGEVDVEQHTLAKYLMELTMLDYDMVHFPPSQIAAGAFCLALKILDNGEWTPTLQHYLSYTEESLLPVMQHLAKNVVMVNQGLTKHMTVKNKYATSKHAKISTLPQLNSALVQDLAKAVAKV
From the text: CDK1/Cyclin B Enzymatic Activity Assay
A 384-well microtiter IMAP-FP™ (Molecular Devices Trade Mark Technology) endpoint assay was used for CDK1/cyclin B kinase activity measurements. The same assay was used for IC50 determination of small molecule inhibitors.

[4] = 0.3 nM CDK4/cyclin D1, 150 nM biotin-pRb (773-924), 3 μM ATP, 60 min at 22° C., read-out: Biochemical CDK4 enzyme IC50
[5] = Homo sapiens, JeKo-1 cells, p-pRb % inhibition adjusted with total pRb levels, read-out: Normalized cellular ppRb inhibition IC50
[6] = Homo sapiens, JeKo-1 cells, p-pRb Ser780 ELISA, non-normalized, read-out: Cellular ppRb inhibition IC50
[7] = […] CDK1/cyclin B, 100 nM Tamra Histone-H1 peptide, 20 μM ATP, 120 min at room temperature, read-out: Biochemical CDK1 enzyme IC50
[8] = Homo sapiens, JeKo-1, JeKo-1 cells, p-pRb % inhibition adjusted with total pRb levels, read-out: Normalized cellular ppRb inhibition IC50
[9] = Homo sapiens, JeKo-1, JeKo-1 cells, p-pRb Ser780 ELISA, non-normalized, read-out: Cellular ppRb inhibition IC50
[10] = 0.25 nM CDK1/cyclin B, 100 nM Tamra Histone-H1 peptide, 20 μM ATP, 120 min at room temperature, read-out: Biochemical CDK1 enzyme IC50

Sequence of CDK4/cyclin D1 (P11802 whole entry): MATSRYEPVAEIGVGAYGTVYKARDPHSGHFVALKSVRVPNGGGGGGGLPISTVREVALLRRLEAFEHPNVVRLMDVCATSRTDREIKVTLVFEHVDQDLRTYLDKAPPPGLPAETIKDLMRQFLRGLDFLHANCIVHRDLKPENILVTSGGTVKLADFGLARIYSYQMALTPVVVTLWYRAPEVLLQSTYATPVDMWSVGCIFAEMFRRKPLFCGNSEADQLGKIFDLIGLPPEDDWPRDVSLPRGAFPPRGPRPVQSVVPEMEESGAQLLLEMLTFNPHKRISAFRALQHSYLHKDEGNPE
Sequence of CDK4/cyclin D1 (P24385 whole entry partner): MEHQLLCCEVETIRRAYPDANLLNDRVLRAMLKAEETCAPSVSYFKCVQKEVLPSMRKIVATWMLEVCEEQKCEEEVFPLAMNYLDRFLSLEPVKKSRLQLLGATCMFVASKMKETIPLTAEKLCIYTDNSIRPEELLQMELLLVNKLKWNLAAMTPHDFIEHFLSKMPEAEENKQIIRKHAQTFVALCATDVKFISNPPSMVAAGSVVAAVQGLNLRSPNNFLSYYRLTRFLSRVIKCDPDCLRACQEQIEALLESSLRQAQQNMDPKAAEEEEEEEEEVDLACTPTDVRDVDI

| SMILES | IC50 [1, 4] | IC50 [2, 5] | IC50 [2, 6] | IC50 [3, 7] | IC50 [2, 8] | IC50 [2, 9] | IC50 [3, 10] | IC50 ([2]; JeKo-1 cells, p-pRb % inhibition adjusted with total pRb levels, read-out: Normalized cellular ppRb inhibition IC50) | IC50 ([2]; JeKo-1 cells, p-pRb Ser780 ELISA, non-normalized, read-out: Cellular ppRb inhibition IC50) | IC50 [1] | IC50 [3] |
| --- | --- | --- | --- | --- | --- | --- | --- | --- | --- | --- | --- |
| CC(C)[C@@H](N)C(=O)N1C2CCC1CN(C(=O)c1ccc(Nc3ncc4cc(C(=O)N(C)C)n(C5CCCC5)c4n3)nc1)C2 [Example 62, 2-{5-[8-((R)-2-Amino-3-methyl-butyryl)-3,8-diaza-bicyclo[3.2.1]octane-3-carbonyl]-pyridin-2-ylamino}-7-cyclopentyl-7H-pyrrolo[2,3-d]pyrimidine-6-carboxylic acid dimethylamide] | 10 nM | 723 nM | 291 nM | 39900 nM |  |  |  |  |  |  |  |
| CN(C)C(=O)c1cc2cnc(Nc3ccc(N4CCN5CCCC5C4=O)cn3)nc2n1C1CCCC1 (centres unmarked) [Example 115] | 20 to 51 nM |  |  |  | 369 to 407 nM | 135 to 306 nM | > 15000 nM |  |  |  |  |
| CN(C)C(=O)c1cc2cnc(Nc3ccc(N4CC5CNCC5C4=O)cn3)nc2n1C1CCCC1 (racemic) [Example 84, 7-cyclopentyl-N,N-dimethyl-2-(5-cis-1-oxohexahydropyrrolo[3,4-c]pyrrol-2(1H)-yl)pyridin-2-ylamino)-7H-pyrrolo[2,3-d]pyrimidine-6-carboxamide] | < 5 nM |  |  |  | 10 to 28 nM | 7 to 17 nM | 18000 nM |  |  |  |  |
| CN(C)C(=O)c1cc2cnc(Nc3ccc(N4C(=O)CN5CCC4CC5)cn3)nc2n1C1CCCC1 [Example 96, 7-cyclopentyl-N,N-dimethyl-2-(5-(3-oxo-1,4-diazabicyclo[3.2.2]nonan-4-yl)pyridin-2-ylamino)-7H-pyrrolo[2,3-d]pyrimidine-6-carboxamide] | 15 to 28 nM |  |  | 10800 nM |  |  |  | 73 to 107 nM | 31 to 39 nM |  |  |
| CN(C)C(=O)c1cc2cnc(Nc3ccc(N4CC5(CCCNC5)OC4=O)cn3)nc2n1C1CCCC1 (centres unmarked) [Example 107, 7-cyclopentyl-N,N-dimethyl-2-(5-(2-oxo-1-oxa-3,7-diazaspiro[4.5]decan-3-yl)pyridin-2-ylamino)-7H-pyrrolo[2,3-d]pyrimidine-6-carboxamide] | 9 nM | 37 to 114 nM | 13 to 49 nM | > 15000 nM |  |  |  |  |  |  |  |
| CN(C)C(=O)c1cc2cnc(Nc3ccc(C(=O)N4CC5CN(Cc6ccccc6)CC(C4)O5)cn3)nc2n1C1CCCC1 [Example 46, 2-[5-(7-Benzyl-9-oxa-3,7-diaza-bicyclo[3.3.1]nonane-3-carbonyl)-pyridin-2-ylamino]-7-cyclopentyl-7H-pyrrolo[2,3-d]pyrimidine-6-carboxylic acid dimethylamide] | 100 nM |  |  | > 15000 nM | 730 nM | 724 nM |  |  |  |  |  |
| CN(C)C(=O)c1cc2cnc(Nc3ccc(C(=O)N4C[C@@H]5C[C@H]4CN5)cn3)nc2n1C1CCCC1 [Example 19, 7-Cyclopentyl-2-[5-((S,S)-2,5-diaza-bicyclo[2.2.1]heptane-2-carbonyl)-pyridin-2-ylamino]-7H-pyrrolo[2,3-d]pyrimidine-6-carboxylic acid dimethylamide] | 5 to 8 nM |  |  | > 15000 nM | 64 to 116 nM | 54 to 55 nM |  |  |  |  |  |
| CN(C)C(=O)c1cc2cnc(Nc3ccc(C(=O)N4CC5CC4CN5)cn3)nc2n1C1CCCCC1 (centres unmarked) [Example 67, 7-Cyclohexyl-2-[5-(2,5-diaza-bicyclo[2.2.1]heptane-2-carbonyl)-pyridin-2-ylamino]-7H-pyrrolo[2,3-d]pyrimidine-6-carboxylic acid dimethylamide] | 3 nM | 54 nM | 51 nM | 10400 nM |  |  |  |  |  |  |  |
| CN(C)C(=O)c1cc2cnc(Nc3ccc(C(=O)N4C[C@@H]5CN[C@@H](C5)C4)cn3)nc2n1C1CCCC1 [Example 10, 7-Cyclopentyl-2-[5-((1S,5S)-3,6-diaza-bicyclo[3.2.1]octane-3-carbonyl)-pyridin-2-ylamino]-7H-pyrrolo[2,3-d]pyrimidine-6-carboxylic acid dimethylamide] | 5 nM |  |  | 4140 nM | 25 nM | 21 nM |  |  |  |  |  |
| CN(C)C(=O)c1cc2cnc(Nc3ccc(C(=O)N4CC5CCC(C4)N5)nn3)nc2n1C1CCCC1 [Example 38, 7-Cyclopentyl-2-[6-(3,8-diaza-bicyclo[3.2.1]octane-3-carbonyl)-pyridazin-3-ylamino]-7H-pyrrolo[2,3-d]pyrimidine-6-carboxylic acid dimethylamide] |  |  |  |  | 139 to 783 nM | 75 to 259 nM | > 15000 nM |  |  | 45 to 84 nM |  |
| CN(C)C(=O)c1cc2cnc(Nc3ccc(N4CCN5CCCCC5C4=O)cn3)nc2n1C1CCCCC1 (centres unmarked) [Example 100, 7-Cyclohexyl-2-[5-(1-oxo-octahydro-pyrido[1,2-a]pyrazin-2-yl)-pyridin-2-ylamino]-7H-pyrrolo[2,3-d]pyrimidine-6-carboxylic acid dimethylamide] | 35 nM | 218 nM | 188 nM | > 15000 nM |  |  |  |  |  |  |  |
| [2H]C([2H])([2H])N1C2CCC1CN(C(=O)c1ccc(Nc3ncc4cc(C(=O)N(C)C)n(C5CCCC5)c4n3)nc1)C2 [Example 63, 7-Cyclopentyl-2-[5-(8-methyl-d3-3,8-diaza-bicyclo[3.2.1]octane-3-carbonyl)-pyridin-2-ylamino]-7H-pyrrolo[2,3-d]pyrimidine-6-carboxylic acid dimethylamide] | 11 to 24 nM |  |  |  | 40 to 242 nM | 34 to 78 nM |  |  |  |  | > 15000 nM |
| CN(C)C(=O)c1cc2cnc(Nc3ccc(N4C[C@@H]5CC[C@H](CC4=O)N5C)cn3)nc2n1C1CCCC1 [Example 141, 7-Cyclopentyl-2-[5-((1S,6R)-9-methyl-4-oxo-3,9-diaza-bicyclo[4.2.1]non-3-yl)-pyridin-2-ylamino]-7H-pyrrolo[2,3-d]pyrimidine-6-carboxylic acid dimethylamide] | 45 nM |  |  | > 15000 nM | 34 nM | 24 nM |  |  |  |  |  |
| CN(C)C(=O)c1cc2cnc(Nc3ccc(N4CC5(CC6CCC(C5)N6C)OC4=O)cn3)nc2n1C1CCCC1 [Example 102, 7-cyclopentyl-N,N-dimethyl-2-(5-((1R,3r,5S)-8-methyl-2′-oxo-8-azaspiro[bicyclo[3.2.1]octane-3,5′-oxazolidine]-3′-yl)pyridin-2-ylamino)-7H-pyrrolo[2,3-d]pyrimidine-6-carboxamide] | 18 nM |  |  | > 15000 nM | 71 nM | 39 nM |  |  |  |  |  |
| CN(C)C(=O)c1cc2cnc(Nc3ccc(C(=O)N4CCN5CCC[C@@H]5C4)cn3)nc2n1C1CCCC1 [Example 21, 7-Cyclopentyl-2-[5-((R)-hexahydro-pyrrolo[1,2-a]pyrazine-2-carbonyl)-pyridin-2-ylamino]-7H-pyrrolo[2,3-d]pyrimidine-6-carboxylic acid dimethylamide] | 47 nM |  |  | > 15000 nM | 401 nM | 187 nM |  |  |  |  |  |
| CN(C)C(=O)c1cc2cnc(Nc3ccc(C(=O)N4CC5C[C@]5(N)C4)cn3)nc2n1C1CCCC1 (single isomer, unassigned) [Example 16] | 15 nM |  |  |  | 233 nM | 92 nM | > 15000 nM |  |  |  |  |
| CN(C)C(=O)c1cc2cnc(Nc3ccc(C(=O)N4CCC5COCC(C4)N5)cn3)nc2n1C1CCCC1 (centres unmarked) [Example 75, 7-Cyclopentyl-2-[5-(8-oxa-3,10-diaza-bicyclo[4.3.1]decane-3-carbonyl)-pyridin-2-ylamino]-7H-pyrrolo[2,3-d]pyrimidine-6-carboxylic acid dimethylamide] |  |  |  |  | 525 nM | 81 nM |  |  |  | 47 nM | > 15000 nM |
| CN(C)C(=O)c1cc2cnc(Nc3ccc(C(=O)N4CC5CNCC(C4)O5)cn3)nc2n1C1CCCC1 [Example 47, 7-Cyclopentyl-2-[5-(9-oxa-3,7-diaza-bicyclo[3.3.1]nonane-3-carbonyl)-pyridin-2-ylamino]-7H-pyrrolo[2,3-d]pyrimidine-6-carboxylic acid dimethylamide] | 30 nM | 352 nM | 315 nM | > 15000 nM |  |  |  |  |  |  |  |
| CN(C)C(=O)c1cc2cnc(Nc3ccc(N4C[C@@H]5CC[C@H](CC4=O)N5)cn3)nc2n1-c1ccccc1 [Example 129, 2-[5-((1S,6R)-4-Oxo-3,9-diaza-bicyclo[4.2.1]non-3-yl)-pyridin-2-ylamino]-7-phenyl-7H-pyrrolo[2,3-d]pyrimidine-6-carboxylic acid dimethylamide] | 48 nM |  |  | > 15000 nM | 221 nM | 194 nM |  |  |  |  |  |
| CN(C)C(=O)c1cc2cnc(Nc3ccc(N4C[C@H]5CNC[C@H]5C4=O)cn3)nc2n1C1CCCCCC1 [Example 83, 7-cycloheptyl-N,N-dimethyl-2-(5-((3aR,6aS)-1-oxohexahydropyrrolo[3,4-c]pyrrol-2(1H)-yl)pyridin-2-ylamino)-7H-pyrrolo[2,3-d]pyrimidine-6-carboxamide] | 3 nM | 9 nM | 5 nM | 5320 nM |  |  |  |  |  |  |  |
